# Measured values published in patent US20220184008A1, “MODULATORS OF INTRACELLULAR CHLORIDE CONCENTRATION” (FONDAZIONE ISTITUTO ITALIANO DI TECNOLOGIA, priority 2019, published 2022).
# System: NKCC1
# Assay: Calcium kinetic assay in primary cultures of immature hippocampal neurons
# Assay type: cell-based
# Settings: 10 μM; immature neurons 3 DIV; Table 1
# Description: FIG. 2: In vitro testing of the NKCC1 inhibitors in a calcium kinetic assay. a) Example traces of fluorescence levels upon application of GABA (100 μM) and KCl (90 mM) used to trigger calcium influx in primary neuronal cultures treated after 3 days in culture (3 DIV) with vehicle, bumetanide, furosemide and compounds 3.8, 3.13 and 3.17 in the calcium kinetic assay. b) Quantification of the average fluorescence increase upon GABA application normalized to the increase upon KCl application in neurons treated with bumetanide, furosemide and 3 exemplary compounds (3.8, 3.13, 3.17) (10 μM, 100 μM). Data represents mean±sem from 5 independent experiments, and they are presented as % of the control. *P<0.05, **P<0.01, ***P<0.001 Kruskal-Wallis Anova (Dunn's Post hoc Test).
# Next, the compounds of the invention were tested for their ability to revert the depolarizing GABAergic signaling in immature neurons. This effect was indirectly measured as calcium influx into the cells with an in vitro calcium kinetic assay in primary cultures of hippocampal neurons. The calcium kinetic assay exploits the physiological, endogenous, high expression of NKCC1 in immature neurons, which causes depolarizing actions of GABA and can activate voltage-gated Ca^2+ channels. Thus, in immature neurons, a compound that blocks NKCC1 is predicted to inhibit Ca^2+ responses upon GABA application. Immature neurons were cultured for 3 days in vitro (3 DIV) and loaded for 15 min with a calcium-sensitive dye (Fluo4). Then, the neurons were treated with bumetanide and furosemide (as positive controls) or with each of the selected compounds for 15 min. As a functional readout, the fluorescence level was monitored in these cultures before and after application of GABA (100 μM, for 20 sec). To test for neuronal viability at the end of the experiment, KCl was applied (90 mM, for 40 sec), which strongly depolarizes neurons, causing high activation of voltage-gated Ca^2+ channels in live cells. To quantify how bumetanide, furosemide, and selected compounds influenced NKCC1 inhibition, the fluorescence values were normalized upon GABA application to the fluorescence levels upon KCl application in treated neurons.
row,SMILES,NKCC1 Inhibition % 10 μM Neurons Calcium kinetic assay [%]
1,"CCCCNc1cc(C(=O)O)cc(S(N)(=O)=O)c1Oc1ccccc1 [Bumetanide, reference compound]",52
2,"CCCCCCNc1ccc([N+](=O)[O-])cc1S(N)(=O)=O [Compound 1.7, 2-(hexylamino)-5-nitro-benzenesulfonamide]",36
3,"CCCCNc1cc(Cl)c(C(=O)O)cc1S(N)(=O)=O [Compound 2.2, 4-(butylamino)-2-chloro-5-sulfamoyl-benzoic acid]",2
4,"CCCCNc1ccc(C(=O)O)cc1S(N)(=O)=O [Compound 2.6, 4-(butylamino)-3-sulfamoyl-benzoic acid]",14
5,"CCCCCCNc1ccc(C(=O)O)cc1S(N)(=O)=O [Compound 2.7, 4-(hexylamino)-3-sulfamoyl-benzoic acid]",10

# Same assay, conditions: 10 μM; immature neurons 3 DIV; Table 2
row,SMILES,NKCC1 Inhibition % 10 μM Neurons Calcium kinetic assay [%]
1,"CCCCNc1cc(C(=O)O)cc(S(N)(=O)=O)c1Oc1ccccc1 [Bumetanide, reference compound]",52
2,"CCCCCCNc1ccc([N+](=O)[O-])cc1S(N)(=O)=O [Compound 1.7, 2-(hexylamino)-5-nitro-benzenesulfonamide]",36
3,"CCCCNc1cc(Cl)c(C(=O)O)cc1S(N)(=O)=O [Compound 2.2, 4-(butylamino)-2-chloro-5-sulfamoyl-benzoic acid]",2
4,"CCCCNc1ccc(C(=O)O)cc1S(N)(=O)=O [Compound 2.6, 4-(butylamino)-3-sulfamoyl-benzoic acid]",14
5,"CCCCCCNc1ccc(C(=O)O)cc1S(N)(=O)=O [Compound 2.7, 4-(hexylamino)-3-sulfamoyl-benzoic acid]",10

# Same assay, conditions: GABA 100 μM; normalized to KCl
row,SMILES,fluorescence increase upon GABA application compared with vehicle (DMSO)-treated controls
1,"CCCCNc1cc(C(=O)O)cc(S(N)(=O)=O)c1Oc1ccccc1 [Bumetanide, reference compound]",significantly reduced

# Biological target: T1, NKCC1 (Homo sapiens, UniProt P55011)
# T1 construct: expressed in transfected cells; host or cells: HEK293
# T1 sequence (P55011 1-1212): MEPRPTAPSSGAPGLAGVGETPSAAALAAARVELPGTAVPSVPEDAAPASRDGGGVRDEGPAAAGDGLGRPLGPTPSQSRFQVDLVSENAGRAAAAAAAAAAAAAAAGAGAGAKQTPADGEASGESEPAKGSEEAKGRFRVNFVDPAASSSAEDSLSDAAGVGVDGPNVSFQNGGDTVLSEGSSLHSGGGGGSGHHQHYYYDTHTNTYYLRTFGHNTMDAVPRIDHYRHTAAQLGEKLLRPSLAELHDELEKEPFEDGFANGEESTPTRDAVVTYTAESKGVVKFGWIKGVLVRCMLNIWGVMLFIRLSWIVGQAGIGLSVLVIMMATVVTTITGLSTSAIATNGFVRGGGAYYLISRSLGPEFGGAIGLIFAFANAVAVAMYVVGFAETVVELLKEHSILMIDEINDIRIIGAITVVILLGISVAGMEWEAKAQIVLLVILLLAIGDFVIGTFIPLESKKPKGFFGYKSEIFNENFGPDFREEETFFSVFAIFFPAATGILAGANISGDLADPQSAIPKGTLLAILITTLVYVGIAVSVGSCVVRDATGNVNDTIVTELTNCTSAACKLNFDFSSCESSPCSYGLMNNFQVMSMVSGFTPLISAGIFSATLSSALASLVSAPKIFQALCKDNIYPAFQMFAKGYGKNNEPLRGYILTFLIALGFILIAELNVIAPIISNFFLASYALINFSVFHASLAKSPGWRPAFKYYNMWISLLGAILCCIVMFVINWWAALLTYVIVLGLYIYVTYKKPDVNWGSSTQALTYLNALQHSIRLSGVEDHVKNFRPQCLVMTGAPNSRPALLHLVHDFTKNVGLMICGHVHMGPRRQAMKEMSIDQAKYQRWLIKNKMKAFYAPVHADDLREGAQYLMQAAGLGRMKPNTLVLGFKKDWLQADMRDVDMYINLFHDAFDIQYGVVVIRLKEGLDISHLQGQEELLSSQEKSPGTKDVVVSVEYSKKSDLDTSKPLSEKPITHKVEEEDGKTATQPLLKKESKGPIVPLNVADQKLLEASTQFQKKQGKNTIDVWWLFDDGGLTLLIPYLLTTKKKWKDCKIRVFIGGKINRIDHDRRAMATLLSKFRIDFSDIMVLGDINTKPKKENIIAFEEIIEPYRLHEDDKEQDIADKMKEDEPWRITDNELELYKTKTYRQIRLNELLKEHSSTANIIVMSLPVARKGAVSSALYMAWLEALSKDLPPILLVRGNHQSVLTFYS
# Assay: Chloride kinetic assay (Cl-sensitive YFP) in NKCC1-transfected HEK293 cells
# Assay type: cell-based
# Settings: 10 μM; NKCC1-transfected HEK293; Table 1
# Description: FIG. 1: In vitro testing of the NKCC1 inhibitors in the chloride kinetic assay a) Example traces obtained in the chloride kinetic assay on HEK cells transfected with the YFP (mock) or with YFP and NKCC1. The arrow indicates the addition of NaCl (final concentration 74 mM) used to initiate the flux assay. b) Quantification of the effect of bumetanide (10 μM and 100 μM) or furosemide (10 μM and 100 μM) in the chloride kinetic assay on mock or NKCC1-transfected HEK293 cells. Data represents mean±sem from 5 independent experiments. c) Quantification of the effect of bumetanide and furosemide and 2 selected compounds (3.8, 3.17) in the chloride kinetic assay on NKCC1-transfected HEK293 cells. Data represents mean±sem from 5 independent experiments, and they are represented as % of the controls. *P<0.05, **P<0.01, ***P<0.001 Kruskal-Wallis Anova (Dunn's Post hoc Test); ###P<0.001 two-tailed unpaired Student t-test.
# To screen in vitro the compounds efficiency in blocking NKCC1, a functional NKCC1 transporter assay was performed by measuring variation of Cl^− ion concentration in the cell through a Cl^− sensitive membrane-tagged yellow fluorescent protein (mbYFPQS, Addgene). mbYFPQS fluorescence is inversely dependent on the concentration of Cl^− inside the cell thus allowing an indirect estimation of the Cl^− transporter activity. In particular, HEK293 cells were transfected with NKCC1 or mock construct (control) together with the Cl^− sensitive YFP. After 2 DIV, the cells were treated with bumetanide and furosemide (as positive controls) or with each of the tested compounds of the invention in a Cl^− free medium. After 30 min, the inhibitory activity of the compounds was tested by monitoring fluorescence upon application of NaCl (FIG. 1a). Transported by NKCC1, Cl binds the YFP, leading to a fluorescence decrease. […] With the Cl kinetic assay, the NKCC1 inhibitory activity of the selected compounds was tested (FIG. 1c).
row,SMILES,NKCC1 Inhibition % 10 μM HEK Chloride YFP assay
1,"CCCCNc1ccc([N+](=O)[O-])cc1S(=O)(=O)NC [Compound 1.10, 2-(butylamino)-N-methyl-5-nitro-benzenesulfonamide]",Inactive
2,"CCCCCCCCNc1ccc([N+](=O)[O-])cc1S(=O)(=O)NC [Compound 1.12, N-methyl-5-nitro-2-(octylamino)benzenesulfonamide]",Inactive
3,"CCCCNc1ccc([N+](=O)[O-])cc1S(=O)(=O)N(C)C [Compound 1.14, 2-(butylamino)-N,N-dimethyl-5-nitro-benzenesulfonamide]",Inactive
4,"CCCCCCCCNc1ccc([N+](=O)[O-])cc1S(=O)(=O)N(C)C [Compound 1.16, N,N-dimethyl-5-nitro-2-(octylamino)benzenesulfonamide]",Inactive
5,"CN(C)S(=O)(=O)c1cc([N+](=O)[O-])ccc1NCCC(C)(C)C [Compound 1.17, 2-(3,3-dimethylbutylamino)-N,N-dimethyl-5-nitro-benzenesulfonamide]",Inactive
6,"CC(C)(C)CCNc1cc(Cl)c(C(=O)O)cc1S(N)(=O)=O [Compound 2.5, 2-chloro-4-(3,3-dimethylbutylamino)-5-sulfamoyl-benzoic acid]",Inactive
7,"CCCCNc1ccc(C(=O)O)cc1S(N)(=O)=O [Compound 2.6, 4-(butylamino)-3-sulfamoyl-benzoic acid]",Inactive

# Same assay, conditions: 10 μM; NKCC1-transfected HEK293; Table 1; read-out: NKCC1 Inhibition % 10 μM HEK Chloride YFP assay
row,SMILES,inhibition at 10 µM [%]
1,"CCCCNc1cc(C(=O)O)cc(S(N)(=O)=O)c1Oc1ccccc1 [Bumetanide, reference compound]",54
2,"CCCCNc1ccc([N+](=O)[O-])cc1S(N)(=O)=O [Compound 1.6, 2-(butylamino)-5-nitro-benzenesulfonamide]",11
3,"CCCCCCNc1ccc([N+](=O)[O-])cc1S(N)(=O)=O [Compound 1.7, 2-(hexylamino)-5-nitro-benzenesulfonamide]",25
4,"CCCCCCCCNc1ccc([N+](=O)[O-])cc1S(N)(=O)=O [Compound 1.8, 5-nitro-2-(octylamino)benzenesulfonamide]",12
5,"CC(C)(C)CCNc1ccc([N+](=O)[O-])cc1S(N)(=O)=O [Compound 1.9, 2-(3,3-dimethylbutylamino)-5-nitro-benzenesulfonamide]",5
6,"CNS(=O)(=O)c1cc([N+](=O)[O-])ccc1NCCC(C)(C)C [Compound 1.13, 2-(3,3-dimethylbutylamino)-N-methyl-5-nitro-benzenesulfonamide]",17
7,"CCCCCCNc1ccc([N+](=O)[O-])cc1S(=O)(=O)N(C)C [Compound 1.15, 2-(hexylamino)-N,N-dimethyl-5-nitro-benzenesulfonamide]",16
8,"CCCCNc1cc(Cl)c(C(=O)O)cc1S(N)(=O)=O [Compound 2.2, 4-(butylamino)-2-chloro-5-sulfamoyl-benzoic acid]",36
9,"CCCCCCNc1cc(Cl)c(C(=O)O)cc1S(N)(=O)=O [Compound 2.3, 2-chloro-4-(hexylamino)-5-sulfamoyl-benzoic acid]",10
10,"CCCCCCCCNc1cc(Cl)c(C(=O)O)cc1S(N)(=O)=O [Compound 2.4, 2-chloro-4-(octylamino)-5-sulfamoyl-benzoic acid]",14
11,"CCCCCCNc1ccc(C(=O)O)cc1S(N)(=O)=O [Compound 2.7, 4-(hexylamino)-3-sulfamoyl-benzoic acid]",4

# Same assay, conditions: 10 μM; NKCC1-transfected HEK293; Table 2
row,SMILES,NKCC1 Inhibition % 10 μM HEK Chloride YFP assay
1,"CCCCNc1ccc([N+](=O)[O-])cc1S(=O)(=O)NC [Compound 1.10, 2-(butylamino)-N-methyl-5-nitro-benzenesulfonamide]",Inactive
2,"CCCCCCCCNc1ccc([N+](=O)[O-])cc1S(=O)(=O)NC [Compound 1.12, N-methyl-5-nitro-2-(octylamino)benzenesulfonamide]",Inactive
3,"CCCCNc1ccc([N+](=O)[O-])cc1S(=O)(=O)N(C)C [Compound 1.14, 2-(butylamino)-N,N-dimethyl-5-nitro-benzenesulfonamide]",Inactive
4,"CCCCCCCCNc1ccc([N+](=O)[O-])cc1S(=O)(=O)N(C)C [Compound 1.16, N,N-dimethyl-5-nitro-2-(octylamino)benzenesulfonamide]",Inactive
5,"CN(C)S(=O)(=O)c1cc([N+](=O)[O-])ccc1NCCC(C)(C)C [Compound 1.17, 2-(3,3-dimethylbutylamino)-N,N-dimethyl-5-nitro-benzenesulfonamide]",Inactive
6,"CC(C)(C)CCNc1cc(Cl)c(C(=O)O)cc1S(N)(=O)=O [Compound 2.5, 2-chloro-4-(3,3-dimethylbutylamino)-5-sulfamoyl-benzoic acid]",Inactive
7,"CCCCNc1ccc(C(=O)O)cc1S(N)(=O)=O [Compound 2.6, 4-(butylamino)-3-sulfamoyl-benzoic acid]",Inactive

# Same assay, conditions: 10 μM; NKCC1-transfected HEK293; Table 2; read-out: NKCC1 Inhibition % 10 μM HEK Chloride YFP assay
row,SMILES,inhibition at 10 µM [%]
1,"CCCCCCNc1ccc([N+](=O)[O-])cc1S(=O)(=O)NC [Compound 1.11, 2-(hexylamino)-N-methyl-5-nitro-benzenesulfonamide]",3.4

# Same assay, conditions: pre-incubation at 10 μM and 100 μM
row,SMILES,effect on decrease in fluorescence upon NaCl application in NKCC1-transfected cells
1,"CCCCNc1cc(C(=O)O)cc(S(N)(=O)=O)c1Oc1ccccc1 [Bumetanide, reference compound]",significantly reduced
